In patent US8293280B2, “Method for treatment of HIV infection” (priority 2004, dated 2012):

System: SIVmac239
Format: in vivo, rhesus macaques (Macaca mulatta)

C[C@H](Cn1cnc2c(N)ncnc21)OCP(=O)(O)O [PMPA, 9-R-(2-phophorylmethoxypropyl) adenine]
viral loads after termination of PMPA therapy (Group 2: no further treatment, Group 3: extract 3.3 NU/kg s.c. daily for 60 days, initiated 2 days prior to termination of PMPA): viral loads rebounded soon after the discontinuation of PMPA therapy
plasma viral loads (by day 28 of PMPA therapy, 30 mg/kg s.c. daily for 28 days, Groups 2 and 3): 100 to 1000 viral copies per mL
